Data reported in ChEMBL document CHEMBL1201862, “PubChem BioAssay data set” (2004).
Calls of active or inactive are those of the source.

How the values were obtained:
[1] = molecular target: Heat shock protein HSP 90-alpha (Homo sapiens, UniProt P07900); type: functional, organism-based
[2] = inhibitors of clade B AD8 Env fusion, dose response, cell-based, cherry-pick (AID 652062); type: functional;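 note: luciferase signal from cell-cell fusion driven by HIV-1 clade B AD8 Env; potency is for inhibitors of fusion seen as a drop in luminescence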
[3] = cytotoxicity in HEK-293T cells, dose response, cytotoxicity control for TCR NF-kB inhibitor project, luminescence, T-cell screen hits (AID 489026); type: functional, cell-based;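 note: cells exposed to compound about 14 hours before the viability readout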
[4] = molecular target: T1, Zinc finger protein mex-5 (Caenorhabditis elegans, UniProt Q9XUB2); assay: MEX-5/TCR-2 RNA interaction inhibitors, dose response, biochemical, C. elegans, fluorescence polarization (AID 1960)
T1 sequence (Q9XUB2 whole entry): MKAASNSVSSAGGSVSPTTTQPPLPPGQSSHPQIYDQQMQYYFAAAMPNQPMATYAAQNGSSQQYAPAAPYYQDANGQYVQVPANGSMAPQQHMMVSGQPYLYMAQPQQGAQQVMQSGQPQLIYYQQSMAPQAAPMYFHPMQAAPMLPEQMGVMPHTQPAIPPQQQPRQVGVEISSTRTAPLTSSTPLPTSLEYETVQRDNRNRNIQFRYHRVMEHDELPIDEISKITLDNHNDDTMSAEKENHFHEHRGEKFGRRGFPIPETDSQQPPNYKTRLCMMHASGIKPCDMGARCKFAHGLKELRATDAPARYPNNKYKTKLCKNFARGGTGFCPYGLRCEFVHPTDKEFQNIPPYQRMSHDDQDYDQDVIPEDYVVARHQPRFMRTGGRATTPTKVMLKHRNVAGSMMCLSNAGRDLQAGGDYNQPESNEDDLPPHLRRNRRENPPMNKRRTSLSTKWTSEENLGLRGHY

[5] = molecular target: T2, RNA-binding protein pos-1 (Caenorhabditis elegans, UniProt G5EF15); assay: inhibitors of POS-1/mex-3 RNA binding, dose response, biochemical, fluorescence polarization (AID 1964);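 note: purified POS-1 fused to maltose binding protein made in E. coli; potency of compounds blocking POS-1 binding to fluorescent RNA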
T2 sequence (G5EF15 whole entry): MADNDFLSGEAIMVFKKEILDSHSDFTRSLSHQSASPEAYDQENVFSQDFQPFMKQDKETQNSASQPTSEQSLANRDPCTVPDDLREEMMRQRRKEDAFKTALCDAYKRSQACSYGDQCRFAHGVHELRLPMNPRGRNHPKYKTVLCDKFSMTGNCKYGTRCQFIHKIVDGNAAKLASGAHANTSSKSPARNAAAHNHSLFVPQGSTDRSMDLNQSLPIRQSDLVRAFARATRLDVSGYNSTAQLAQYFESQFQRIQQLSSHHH

Vero = Vero cell cytotoxicity, cytotoxicity control for flavivirus capping enzyme inhibitors (AID 588742); type: functional; details: Chlorocebus sabaeus
Protein skinhead-1 = molecular target: T3, Protein skinhead-1 (Caenorhabditis elegans, UniProt P34707); type: functional
T3 sequence (P34707 whole entry): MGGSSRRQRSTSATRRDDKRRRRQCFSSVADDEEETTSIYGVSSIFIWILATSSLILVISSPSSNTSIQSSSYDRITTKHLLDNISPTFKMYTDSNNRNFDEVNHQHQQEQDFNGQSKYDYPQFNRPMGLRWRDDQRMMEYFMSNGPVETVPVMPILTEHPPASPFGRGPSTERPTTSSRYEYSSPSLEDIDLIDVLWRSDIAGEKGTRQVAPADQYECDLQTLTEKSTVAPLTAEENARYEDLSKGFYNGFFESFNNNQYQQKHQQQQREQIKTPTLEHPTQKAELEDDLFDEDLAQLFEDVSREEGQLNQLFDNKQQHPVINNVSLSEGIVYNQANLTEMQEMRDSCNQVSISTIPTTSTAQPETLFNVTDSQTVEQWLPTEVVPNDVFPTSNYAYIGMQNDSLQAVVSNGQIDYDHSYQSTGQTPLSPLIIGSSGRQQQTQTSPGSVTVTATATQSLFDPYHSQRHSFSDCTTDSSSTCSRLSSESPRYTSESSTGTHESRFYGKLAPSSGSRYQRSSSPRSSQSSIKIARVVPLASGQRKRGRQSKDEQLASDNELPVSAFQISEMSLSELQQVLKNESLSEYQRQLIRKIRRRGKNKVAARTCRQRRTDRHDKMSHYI

[6] = molecular target: T4, Corticotropin-releasing factor receptor 2/Corticotropin-releasing factor-binding protein (Homo sapiens, UniProt P24387+Q13324); assay: Dose Response confirmation of uHTS hits for small molecule antagonists of the CRF-binding protein and CRF-R2 receptor complex.; type: functional; details: read-out: IC50_Mean
T4 sequence (Q13324 whole entry): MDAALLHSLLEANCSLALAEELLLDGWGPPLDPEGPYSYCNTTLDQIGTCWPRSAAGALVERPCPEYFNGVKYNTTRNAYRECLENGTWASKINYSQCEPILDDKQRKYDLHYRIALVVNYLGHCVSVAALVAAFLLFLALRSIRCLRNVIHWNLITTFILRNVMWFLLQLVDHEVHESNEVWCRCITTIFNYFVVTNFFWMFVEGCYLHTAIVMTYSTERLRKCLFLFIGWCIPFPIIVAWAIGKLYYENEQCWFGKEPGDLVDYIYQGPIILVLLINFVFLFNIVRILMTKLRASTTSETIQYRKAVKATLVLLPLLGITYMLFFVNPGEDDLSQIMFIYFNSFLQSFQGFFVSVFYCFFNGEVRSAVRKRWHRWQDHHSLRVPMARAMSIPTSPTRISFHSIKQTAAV
T4 sequence (P24387 whole entry): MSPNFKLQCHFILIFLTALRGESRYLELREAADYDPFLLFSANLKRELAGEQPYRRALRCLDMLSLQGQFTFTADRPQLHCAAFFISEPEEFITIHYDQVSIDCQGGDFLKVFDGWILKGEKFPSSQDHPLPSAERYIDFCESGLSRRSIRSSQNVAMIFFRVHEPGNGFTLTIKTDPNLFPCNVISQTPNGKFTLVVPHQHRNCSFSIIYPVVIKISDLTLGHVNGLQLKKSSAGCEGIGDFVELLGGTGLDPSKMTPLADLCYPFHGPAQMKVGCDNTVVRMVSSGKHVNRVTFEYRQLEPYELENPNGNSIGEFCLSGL

[7] = molecular target: T4, Corticotropin-releasing factor receptor 2/Corticotropin-releasing factor-binding protein; assay: activators of CRF receptor 2 with binding protein – uHTS hits, confirmation (AID 602473); type: functional; details: read-out: EC50_Mean
[8] = Luminescence Cell-Based Dose Retest to Confirm Inhibitors of Cancer Stem Cells. [Related pubchem assays (depositor defined):AID2717, AID2721]; type: functional; details: Homo sapiens
[9] = Luminescence Cell-Based Dose Response HTS to Identify Inhibitors of 5'UTR Stem-Loop Driven Prion Protein mRNA Translation in H4 Neuroglioblastoma Cells. [Related pubchem assays: 1827 (Project Summary), 1813 (Primary HTS)]; type: functional
[10] = inhibitors of SNCA 5'UTR-driven reporter translation, confirmation, H4 neuroglioma cells, luminescence (AID 1988); type: functional, cell-based
[11] = inhibitors of firefly luciferase expression or activity, dose response, H4 neuroglioma cells, luminescence (AID 1990); type: functional, cell-based
[12] = ZM109 Env clade C HIV-1 fusion inhibitors, dose response, HeLa effector, CEM target cells, luciferase, cherry-pick (AID 652058); type: functional, cell-based
[13] = off-target signal loss in HeLa-CEM21 co-culture – HeLa F-luc CTL cells, cherry-picked, counter-screen for HIV-1 Env fusion inhibitor project, dose response (AID 652040); type: functional, cell-based;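 note: potency for signal decrease marking cytotoxic or nonspecific inhibition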
[14] = inhibitors of HIV Env-driven cell fusion, dose response, cherry-pick (AID 652057); type: functional, cell-based
Fatty acid synthase [15] = molecular target: T5, Fatty acid synthase (Homo sapiens, UniProt P49327); assay: FAS thioesterase domain inhibitors, dose response, biochemical, endpoint fluorescence intensity, uHTS hits (AID 624327); type: functional;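 note: fluorescence from hydrolysis of an O-methyl fluorescein acyl ester substrate by the enzyme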
Fatty acid synthase [16] = molecular target: T5, Fatty acid synthase; assay: FAS thioesterase domain inhibitors, dose response, biochemical, kinetic fluorescence intensity (AID 624326); type: functional;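 note: rate of fluorescence rise from hydrolysis of a fluorogenic O-methyl fluorescein ester substrate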

T5 sequence (P49327 whole entry, the tested form may be a part): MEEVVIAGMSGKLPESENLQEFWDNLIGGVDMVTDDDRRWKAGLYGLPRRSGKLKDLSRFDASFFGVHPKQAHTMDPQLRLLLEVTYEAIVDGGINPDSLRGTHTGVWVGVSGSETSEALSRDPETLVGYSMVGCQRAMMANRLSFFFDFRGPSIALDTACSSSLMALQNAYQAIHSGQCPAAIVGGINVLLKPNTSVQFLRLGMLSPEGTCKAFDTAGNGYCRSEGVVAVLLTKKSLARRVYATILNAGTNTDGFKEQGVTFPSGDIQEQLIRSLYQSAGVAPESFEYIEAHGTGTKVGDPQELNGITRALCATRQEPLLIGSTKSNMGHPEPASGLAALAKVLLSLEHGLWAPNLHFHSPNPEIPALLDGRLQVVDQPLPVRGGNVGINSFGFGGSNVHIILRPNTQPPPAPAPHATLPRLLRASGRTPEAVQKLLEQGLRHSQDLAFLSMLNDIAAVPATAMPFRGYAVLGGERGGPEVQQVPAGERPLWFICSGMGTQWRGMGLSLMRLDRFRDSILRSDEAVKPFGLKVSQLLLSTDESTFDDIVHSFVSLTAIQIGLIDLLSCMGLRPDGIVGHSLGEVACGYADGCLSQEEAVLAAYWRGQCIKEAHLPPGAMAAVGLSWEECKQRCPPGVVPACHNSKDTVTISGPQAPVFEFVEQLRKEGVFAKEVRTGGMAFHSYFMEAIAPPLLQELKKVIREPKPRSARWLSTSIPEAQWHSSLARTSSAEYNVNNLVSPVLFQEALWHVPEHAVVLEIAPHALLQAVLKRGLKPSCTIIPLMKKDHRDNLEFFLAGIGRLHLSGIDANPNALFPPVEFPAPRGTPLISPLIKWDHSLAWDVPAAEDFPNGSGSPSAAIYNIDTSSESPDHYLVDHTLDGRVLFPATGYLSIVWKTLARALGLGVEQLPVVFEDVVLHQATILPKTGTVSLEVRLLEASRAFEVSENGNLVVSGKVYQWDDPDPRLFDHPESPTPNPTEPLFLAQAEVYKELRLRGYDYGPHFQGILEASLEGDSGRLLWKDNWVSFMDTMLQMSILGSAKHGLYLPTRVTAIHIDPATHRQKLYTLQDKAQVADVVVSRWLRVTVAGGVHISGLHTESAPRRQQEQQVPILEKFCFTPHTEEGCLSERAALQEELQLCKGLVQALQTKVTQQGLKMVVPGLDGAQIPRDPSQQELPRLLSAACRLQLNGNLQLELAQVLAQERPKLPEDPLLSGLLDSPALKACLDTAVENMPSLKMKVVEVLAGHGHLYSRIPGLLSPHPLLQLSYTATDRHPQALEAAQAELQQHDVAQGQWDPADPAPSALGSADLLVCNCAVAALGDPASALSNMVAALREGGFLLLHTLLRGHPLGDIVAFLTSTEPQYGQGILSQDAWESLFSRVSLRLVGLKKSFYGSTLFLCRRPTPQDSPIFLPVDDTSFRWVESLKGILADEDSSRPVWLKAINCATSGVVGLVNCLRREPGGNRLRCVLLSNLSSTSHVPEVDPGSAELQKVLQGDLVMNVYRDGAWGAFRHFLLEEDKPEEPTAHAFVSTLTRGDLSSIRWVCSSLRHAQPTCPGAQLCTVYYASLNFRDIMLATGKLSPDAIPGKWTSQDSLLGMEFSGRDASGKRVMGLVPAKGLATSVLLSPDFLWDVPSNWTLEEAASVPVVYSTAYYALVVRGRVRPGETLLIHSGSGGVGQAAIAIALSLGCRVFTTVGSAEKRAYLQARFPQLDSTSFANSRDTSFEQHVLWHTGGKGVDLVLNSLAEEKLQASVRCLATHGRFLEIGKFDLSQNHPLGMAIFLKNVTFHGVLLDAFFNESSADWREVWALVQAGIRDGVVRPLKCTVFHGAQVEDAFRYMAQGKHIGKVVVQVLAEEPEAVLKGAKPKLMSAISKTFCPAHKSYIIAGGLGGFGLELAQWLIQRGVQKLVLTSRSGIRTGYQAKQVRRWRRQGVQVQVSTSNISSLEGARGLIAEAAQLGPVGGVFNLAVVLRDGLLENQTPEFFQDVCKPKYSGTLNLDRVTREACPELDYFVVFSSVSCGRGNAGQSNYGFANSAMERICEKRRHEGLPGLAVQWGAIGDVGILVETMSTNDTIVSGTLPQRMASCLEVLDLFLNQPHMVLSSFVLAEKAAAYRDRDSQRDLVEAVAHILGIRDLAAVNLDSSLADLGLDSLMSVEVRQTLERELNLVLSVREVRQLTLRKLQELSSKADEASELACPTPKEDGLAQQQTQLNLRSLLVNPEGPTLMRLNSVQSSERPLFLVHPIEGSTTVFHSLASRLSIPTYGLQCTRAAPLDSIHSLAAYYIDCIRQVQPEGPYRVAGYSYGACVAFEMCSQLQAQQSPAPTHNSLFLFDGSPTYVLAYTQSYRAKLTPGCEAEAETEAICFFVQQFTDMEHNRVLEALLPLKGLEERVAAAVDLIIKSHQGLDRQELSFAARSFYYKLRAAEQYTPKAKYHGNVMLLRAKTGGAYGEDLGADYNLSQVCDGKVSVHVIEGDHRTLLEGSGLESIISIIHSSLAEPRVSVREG

In the case of `C=CCn1c(C)cc(C(=O)CSc2nc(O)c3ccccc3n2)c1C`, the AC50 [1] is reported as 2.6 µM (active).
With `COc1ccc(OCC(=O)Nc2ccccc2N2CCCCC2)cc1` the AC50 [2] was 33.4 µM (active) and the IC50 [3] was > 80 µM (inactive).
In the case of `CCCCN1C(=O)/C(=C/C=C2\Oc3ccccc3N2CC)SC1=S`, the EC50 [4] is reported as > 300 µM (not active), the AC50 [1] is reported as 171 µM (active) and the EC50 [5] is reported as 48.2 µM (active).
For `CCN1C(=O)/C(=C/C=C2\C=CN(CC)c3ccccc32)SC1=S`, the CC50 (Vero) was > 40 µM (active).
In the case of `Cn1nnc2cc(C(=O)NCCC3=CCCCC3)ccc21`, the IC50 (Protein skinhead-1) is reported as > 100 µM (inactive), the IC50 [6] is reported as > 47.1 µM (inactive) and the EC50 [7] is reported as > 53 µM (inactive).
For `O=C1CC(c2cc(Br)ccc2F)c2cc3c(cc2N1)CCC3` (configuration not stated), the AC50 [8] was < 0.16 µM (active), the EC50 [9] was 2.01 µM (active) and the IC50 [3] was > 80 µM (inactive). The EC50 [10] was 1.48 µM (inconclusive) and the EC50 [11] was 7.6 µM (active).
In the case of `CC1(C)C2CCC1(C)C(OCCNCCOC(=O)Nc1ccccc1)C2` (configuration not stated), the AC50 [12] is reported as 8.26 µM (active), the AC50 [2] is reported as 27.5 µM (active) and the AC50 [13] is reported as 27.6 µM (active). For the same molecule, the AC50 [14] was 8.49 µM (active).
For `Cc1ccc([N+](=O)[O-])cc1NC(=O)CCc1ccccc1`, the IC50 (Fatty acid synthase [15]) was 14 µM (active) and the IC50 (Fatty acid synthase [16]) was 17.5 µM (active).
In the case of `O=C(O)c1ccc(S(=O)(=O)c2ccccc2)cc1`, the IC50 (Protein skinhead-1) is reported as > 100 µM (inactive).
With `Cc1ccc(O)c(NC(=O)c2cc([N+](=O)[O-])ccc2Cl)c1` the IC50 (Fatty acid synthase [15]) was 13.4 µM (active) and the IC50 (Fatty acid synthase [16]) was 15.8 µM (active).
In the case of `Cc1cc(C)c(C(=O)COC(=O)c2cc([N+](=O)[O-])ccc2NCCO)cc1C`, the IC50 (Fatty acid synthase [15]) is reported as 8.07 µM (active) and the IC50 (Fatty acid synthase [16]) is reported as 13.3 µM (active).
For `COC(=O)c1ccc(CSc2nc3ccccc3o2)cc1`, the IC50 (Protein skinhead-1) was 41.7 µM (active).
